“Also recorded” adds a separate entry of the source.

These results are taken from patent US20170209444A1, “METHODS OF TREATING CANCER AND PREVENTING CANCER DRUG RESISTANCE” (Genentech, Inc., priority 2014, published 2017).

Assay [1] relates to H3K9 methylation. Kind of assay: H3K9 methylation in SKBR3 cells (FIG. 9A). Format: cell-based. The settings on record: human breast adenocarcinoma cell line SKBR3. How it is done: (§1) Generally, for G9a inhibitor experiments cells were treated with active compound at 0.1, 0.2, 0.5 and/or 1 uM of the G9a inhibitor, UNC0638, for 3-5 days prior to chemotherapy treatment and were maintained on drug for the duration of the study.
(§2) Cell lysates were prepared in Laemmli sample buffer and analyzed by immunoblotting as described previously. Cell lystates were analyzed using commercial antibodies against modifications on H3 (Abcam, Active Motif, and Cell Signaling Technologies).

The subject of a further assay is M14 DTPs. The experiment in a line: M14 DTP formation, GDC0973. The settings on record: DTPs upon treatment with GDC0973; FIG. 10B. The assay is classed as cell-based, human. How it is done:
(§3) 2×10^5 cells were plated in each well of a 6-well cluster dish. 24 hours after plating, media was removed and replaced with media containing drugs. Fresh media was replaced every 2 days until untreated cells reached confluence. Media was then removed, cells were washed with Phosphate Buffered Saline (PBS), and then fixed for 15 min with 4% formaldehyde in PBS. Cells were then washed with PBS and stained with the fluorescent nucleic acid stain, Syto60 ([…] in PBS; Molecular Probes) for 15 min. Dye was removed, cell monolayers were washed with PBS, and fluorescence quantitation was carried out at 700 nm with an Odyssey Infrared Imager (Li-Cor Biosciences). In some setting, RFP nuc red cells were used rather than Syto60.
(§4) Drug-sensitive cells were treated with relevant drug as described herein at concentrations exceeding 100 times the established IC50 values, for three rounds, with each treatment lasting 72 hours. […]
(§5) Specifically for Tarceva, GDC-0980, GDC-0973, AZ628, and Lapatinib DTPs, cells were plated and grown to 60-70% confluency then treated with Tarceva (0.1, 0.2, 0.5, and/or 1 uM), GDC-0980 (2 uM), GDC-0973 (1 uM), AZ628 (2 uM) and Lapatinib (1 uM). DTPs were collected and analyzed 1 week after the final dose of chemotherapy. […]

Another assay deals with parental PC9 cells. Kind of assay: Viability of parental PC9 cells. Format: cell-based, human. The note with it: shown concentrations; FIG. 6B. As for the experimental part:
as §3, §1

Assay [2] relates to H3K9 methylation. Kind of assay: H3K9 methylation in Colo205 cells (FIG. 11A). The assay is classed as cell-based. The settings on record: human colon cancer cell line Colo205. As for the experimental part:
as §1, §2

Another assay deals with Colo205 DTPs. The experiment in a line: Colo205 DTP formation, AZ628. Format: cell-based, human. The note with it: DTPs upon treatment with AZ628; FIG. 11B. As for the experimental part: as §3, §4, §5
A further assay deals with EVSA-T parental cells. The experiment in a line: Viability of EVSA-T parental cells. The assay is classed as cell-based, human. The note with it: shown concentrations; FIG. 8B. As for the experimental part:
as §3, §1

Another assay deals with methylation of H3K9. The experiment in a line: H3K9 methylation by Western blotting and mass spectrometry (FIG. 3A). Format: cell-based. As for the experimental part:
as §1, §2
Samples with 10 million cells were lysed and histones were isolated from cell lysates using the Active Motif Histone Purification Kit (world wide web activemotif.com/catalog/171.html). Protein quantitation post-isolation was performed using the Qubit fluorescence platform (Invitrogen). The target yield was at least 20 μg or greater of purified histone per 5 million cells. The samples were then derivatized and binary comparisons using d0/d10 propionic anhydride and trypsin digestion was conducted. […]
Peptide digests were analyzed by nano LC/MS/MS in data-dependent mode on a LTQ Orbitrap Velos tandem mass spectrometer. […] Trypsin-digested propionylated samples were quantitated within each LC/MS run by comparing d0/d5 pairs (according to the work of Garcia et al., JPR, 8, 5367-5374 (2009)). Alternate enzyme samples were quantitated label-free between LC/MS runs.
Background: A western blot detects proteins with antibodies after separation by electrophoresis.

The subject of assay [3] is H3K9 methylation. The experiment in a line: H3K9 methylation Western blot in PC9 cells (FIG. 6A). Format: cell-based, human. How it is done:
as §1, §2

The next assay relates to Colo205 parental cells. The experiment in a line: Viability of Colo205 parental cells. The assay is classed as cell-based, human. The note with it: shown concentrations; FIG. 11B. As for the experimental part: as §3, §1
The test system of assay [4] is H3K9 methylation. The experiment in a line: H3K9 methylation in M14 cells (FIG. 10A). Format: cell-based. The settings on record: human melanoma cell line M14. As for the experimental part: as §1, §2
A further assay has as its system M14 parental cells. Kind of assay: Viability of M14 parental cells. Format: cell-based, human. The note with it: shown concentrations; FIG. 10B. As for the experimental part: as §3, §1
The subject of another assay is SKBR3 DTPs. The experiment in a line: SKBR3 DTP formation, Lapatinib. Format: cell-based, human. The note with it: DTPs upon treatment with Lapatinib; FIG. 9B. As for the experimental part: as §3, §4, §5
In another assay the test system is H3K9me2 levels. The note with it: Vedadi et al. 2011; Sweis et al. 2014; cited from earlier work.
Another assay concerns G9aK185me3. Kind of assay: G9a auto-methylation (FIG. 3B). Format: cell-based. How it is done:
Cell lysates were prepared in Laemmli sample buffer and analyzed by immunoblotting as described previously.

A further assay relates to PC9 DTPs. Kind of assay: PC9 drug tolerant persister (DTP) formation/viability, Tarceva. The assay is classed as cell-based, human. How it is done: as §3, §4, §5
The next assay has as its system SKBR3 parental cells. The experiment in a line: Viability of SKBR3 parental cells. The assay is classed as cell-based, human. The settings on record: shown concentrations; FIG. 9B. As for the experimental part:
as §3, §1

For a further assay, the system named is EVSA-T DTPs. The experiment in a line: EVSA-T DTP formation, GDC-0980. Format: cell-based, human. The settings on record: DTPs upon treatment with GDC-0980; FIG. 8B. As for the experimental part:
as §3, §4, §5

For assay [5], the system named is H3K9 methylation. Kind of assay: H3K9 methylation in EVSA-T cells (FIG. 8A). Format: cell-based. The settings on record: human breast cancer cell line EVSA-T. How it is done:
as §1, §2

For the compound `COc1cc2c(NC3CCN(C(C)C)CC3)nc(C3CCCCC3)nc2cc1OCCCN1CCCC1` [UNC0638], the “H3K9 methylation (me1, me2, me3)” value is “reduces H3K9 methylation (e.g., me1, me2, and me3) in a dose dependent manner” in the assay with H3K9 methylation [1]; “reduces H3K9 methylation (e.g., me1, me2, and me3) in a dose dependent manner” in the assay with H3K9 methylation [2]; “reduced methylation of H3K9; also recorded: reduces H3K9 methylation (e.g., me1, me2, and me3) in a dose dependent manner” in the assay with H3K9 methylation [3]; “reduces H3K9 methylation (e.g., me1, me2, and me3) in a dose dependent manner” in the assay with H3K9 methylation [4]; “reduces H3K9 methylation (e.g., me1, me2, and me3) in a dose dependent manner” in the assay on H3K9 methylation [5]. Besides, in the assay with M14 DTPs, the “number of M14 DTPs formed after pre-treatment” value is reported as “dose dependent reduction in the number of M14 DTPs formed”. Further, the “viability of the parental PC9 cells” value in the assay on parental PC9 cells is “do not affect the viability of the parental PC9 cells”. Also, the “number of Colo205 DTPs formed after pre-treatment” value in the assay with Colo205 DTPs was “dose dependent reduction in the number of Colo205 DTPs formed”. For the same compound, the “viability of the EVSA-T parental cells” value in the assay on EVSA-T parental cells is on record as “do not affect the viability of the EVSA-T parental cells”. Also, the “inhibition of methylation of H3K9” value in the assay with methylation of H3K9 is recorded as “capable of inhibiting methylation of H3K9”. In addition, the “viability of the Colo205 parental cells” value in the assay with Colo205 parental cells is “do not affect the viability of the Colo205 parental cells”. Moreover, the “viability of the M14 parental cells” value with M14 parental cells is reported as “do not affect the viability of the M14 parental cells”. The “number of SKBR3 DTPs formed after pre-treatment” value in the assay with SKBR3 DTPs is “dose dependent reduction in the number of SKBR3 DTPs formed”. The H3K9me2 levels entry in the assay with H3K9me2 levels was “reduces H3K9me2 levels in a concentration dependent manner”. Besides, in the assay with G9aK185me3, the “inhibition of auto-methylation G9aK185me3” value is given as “inhibits auto-methylation G9aK185me3”. In addition, in the assay on PC9 DTPs (Tarceva, FIGS. 5 and 7), the “viability/number of PC9 DTPs generated via treatment with Tarceva” value was “reduces the number of the non-small cell lung cancer cell line, PC9, DTPs; also recorded: reduced the viability of PC9 DTPs”. Besides, in the assay on PC9 DTPs (varying doses of UNC0638 pre-treatment, FIG. 6B), the “number of DTPs formed after pre-treatment” value is on record as “reducing the number of PC9 DTPs; also recorded: dose dependent reduction in the number of DTPs formed”. Also, the “viability of the SKBR3 parental cells” value with SKBR3 parental cells is “do not affect the viability of the SKBR3 parental cells”. The “number of EVSA-T DTPs formed after pre-treatment” value in the assay with EVSA-T DTPs is listed as “dose dependent reduction in the number of EVSA-T DTPs formed”.
